The structures appear in SMILES notation. Starred links: 1 amine or outer side, 2 acyl side, 3 side chain; linkers in the order of their positions; H or OH if unused. Positions of bridges follow the written chain, without caps; N, C: chain ends. Non-standard residues stand in square brackets, D forms with d. Residues, ends and D or L forms follow the SMILES beside them. αMeNle(4R-Me,6-ylidene) = C[C@H](CC=[*:3])C[C@](C)(N[*:1])C(=O)[*:2]; X3 = C[C@@H](CC=[*:3])C[C@](C)(N[*:1])C(=O)[*:2]; X2 = O=C([C@@H](CC[*:3])N[*:1])[*:2]; S5 = C=CCCC[C@](C)(N)C(=O)O

These results are taken from ChEMBL document CHEMBL4229451, “Recent advances in peptidomimetics antagonists targeting estrogen receptor α-coactivator interaction in cancer therapy” (Bioorg Med Chem Lett, 2018).

In test [1] the target is T1, Estrogen receptor (Homo sapiens, UniProt P03372).
T1 sequence (P03372 whole entry): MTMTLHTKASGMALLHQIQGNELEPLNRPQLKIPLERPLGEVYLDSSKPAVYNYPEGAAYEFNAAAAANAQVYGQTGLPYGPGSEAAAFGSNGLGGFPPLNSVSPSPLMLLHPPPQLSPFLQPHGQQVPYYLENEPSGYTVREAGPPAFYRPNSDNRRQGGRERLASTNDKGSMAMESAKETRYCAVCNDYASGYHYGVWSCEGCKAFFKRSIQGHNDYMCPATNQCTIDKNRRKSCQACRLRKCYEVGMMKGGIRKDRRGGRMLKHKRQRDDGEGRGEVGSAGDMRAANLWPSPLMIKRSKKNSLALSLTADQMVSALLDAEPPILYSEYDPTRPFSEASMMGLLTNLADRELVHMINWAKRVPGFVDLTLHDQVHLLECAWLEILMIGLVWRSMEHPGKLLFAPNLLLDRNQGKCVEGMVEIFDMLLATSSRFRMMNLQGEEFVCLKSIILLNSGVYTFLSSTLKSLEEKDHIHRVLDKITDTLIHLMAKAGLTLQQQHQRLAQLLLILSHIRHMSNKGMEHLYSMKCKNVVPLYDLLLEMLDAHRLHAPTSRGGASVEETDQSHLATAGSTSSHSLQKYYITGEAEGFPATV
The test can be described thus: Antagonist activity at full length recombinant human ERalpha expressed in baculovirus expression system assessed as inhibition of estradiol-induced Euphorium-labelled LTERHKILHRLLQEGSPSD peptide recruitment after 1.5 hrs by time-resolved fluorescence assay.

In test [2] the target is T1, Estrogen receptor. The experiment in a line: Displacement of 5-iodoacetamidofluorescein-labelled SRC3 from C417-biotin labelled ERalpha (unknown origin) (304 to 554 residues) after 45 mins by TR-FRET assay. (In general: Time-resolved FRET reads energy transfer from a long-lived donor to a nearby acceptor.)
The target in test [3] is Estrogen receptor beta (Homo sapiens, UniProt Q92731, C334S/C369S/C481S). The test can be described thus: (§1) Binding affinity to recombinant human ERbeta LBD (259 to 498 residues) C334S/C369S/C481S triple mutant expressed in Escherichia coli BL21(DE3) by surface plasmon resonance method. (In general: In SPR one partner is held on a chip, and binding of the other changes the refractive index at the surface.)

For test [4], the target named is T1, Estrogen receptor. The test can be described thus: (§2) Binding affinity to recombinant human ERalpha LBD (301 to 553 residues) expressed in Escherichia coli BL21(DE3) by surface plasmon resonance method.
The subject of test [5] is Estrogen receptor beta (Homo sapiens), Q92731 [C334S,C369S,C481S]. The description is as §1.
For test [6], the target named is T2, Estrogen receptor (Homo sapiens) (UniProt P03372).
T2 sequence (whole entry): T1 sequence (P03372 whole entry)
Described as §2.

Test [7] concerns the target Estrogen receptor beta (Homo sapiens, UniProt Q92731). The test can be described thus: Antagonist activity at full length recombinant human ERbeta expressed in baculovirus expression system assessed as inhibition of estradiol-induced Euphorium-labelled QAQQKSLLQQLLTE peptide recruitment after 1.5 hrs by time-resolved fluorescence assay.

Sequence of Estrogen receptor beta (Homo sapiens, UniProt Q92731, C334S/C369S/C481S) (Q92731 whole entry C334S/C369S/C481S, the tested form may be a part): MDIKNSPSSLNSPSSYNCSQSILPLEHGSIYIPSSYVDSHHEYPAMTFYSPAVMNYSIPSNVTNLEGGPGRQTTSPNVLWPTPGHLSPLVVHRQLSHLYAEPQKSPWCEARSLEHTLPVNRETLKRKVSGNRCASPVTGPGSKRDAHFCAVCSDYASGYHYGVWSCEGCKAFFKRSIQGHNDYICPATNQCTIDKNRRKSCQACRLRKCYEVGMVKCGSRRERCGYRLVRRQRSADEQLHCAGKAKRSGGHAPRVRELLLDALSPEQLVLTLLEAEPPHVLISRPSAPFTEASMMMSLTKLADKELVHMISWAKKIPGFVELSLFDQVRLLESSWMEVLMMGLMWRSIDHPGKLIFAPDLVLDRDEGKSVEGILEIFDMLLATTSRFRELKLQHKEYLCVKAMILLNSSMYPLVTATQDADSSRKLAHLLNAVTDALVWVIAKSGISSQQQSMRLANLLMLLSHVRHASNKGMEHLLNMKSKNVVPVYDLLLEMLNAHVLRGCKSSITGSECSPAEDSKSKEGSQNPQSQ
Sequence of Estrogen receptor beta (Homo sapiens), Q92731 [C334S,C369S,C481S] (Q92731 whole entry C334S/C369S/C481S): as the sequence (Q92731 whole entry C334S/C369S/C481S, the tested form may be a part) above
Sequence of Estrogen receptor beta (Homo sapiens, UniProt Q92731) (Q92731 whole entry): as the sequence (Q92731 whole entry C334S/C369S/C481S, the tested form may be a part) above, with S334C, S369C, S481C counted along it

Usually Ki stands for a measure of affinity in units of concentration, obtained from inhibition or displacement. For the compound `CC[C@H](C)[C@@H]1NC(=O)[C@H](NC(=O)[C@@H](N)CCCNC(=N)N)CSSC[C@H](C(=O)N[C@@H](CCCNC(=N)N)C(=O)N[C@@H](CC(C)C)C(=O)N[C@@H](CC(C)C)C(=O)N[C@@H](CCC(N)=O)C(N)=O)NC(=O)[C@H](CC(C)C)NC1=O`, the Ki at Estrogen receptor [1] came to 11 nM.

In general, IC50 refers to the concentration that gives 50% inhibition. Lower therefore signals inhibition by little substance. On to `CC(=O)N[C@@H](Cc1cnc[nH]1)C(=O)N[C@@H](CCCCN)C(=O)N[C@@]1(C)CCC/C=C\C[C@@H](C)C[C@@](C)(C(=O)N[C@@H](CC(C)C)C(=O)N[C@@H](CCC(N)=O)C(=O)N[C@@H](CC(=O)O)C(=O)N[C@@H](CO)C(N)=O)NC(=O)[C@H](CCCNC(=N)N)NC(=O)[C@H](Cc2cnc[nH]2)NC(=O)[C@H](CC(C)C)NC1=O` (Ac-HK[S5]LHR[αMeNle(4R-Me,6-ylidene)]LQDS-NH2; staple (Z) 3-7), for which the IC50 on Estrogen receptor [2] was 1800 nM.

For orientation: Kd means the concentration at which binding is half-saturated. For the compound `CC[C@H](C)[C@H](NC(=O)[C@H](CCCCN)NC(=O)[C@]1(C)CCC/C=C\CCC[C@](C)(NC(C)=O)C(=O)N[C@@H](CCCCN)C(=O)N[C@@H](CCC(=O)O)C(=O)N[C@@H](CCCCN)C(=O)N1)C(=O)N[C@@H](CC(C)C)C(=O)N[C@@H](Cc1cnc[nH]1)C(=O)N[C@@H](CCC(N)=O)C(=O)N[C@@H](CC(C)C)C(=O)N[C@@H](CC(C)C)C(=O)N[C@@H](CCC(N)=O)C(=O)N[C@@H](CC(=O)O)C(=O)N[C@@H](CO)C(N)=O` (Ac-[S5]KEK[S5]KILHQLLQDS-NH2; staple (Z) 1-5), the Kd on Estrogen receptor beta [3] was 8300 nM; at Estrogen receptor [4] it was 8000 nM.

As for `CC[C@H](C)[C@@H]1NC(=O)[C@H](NC(=O)[C@@H](N)CCCCN)CSSC[C@H](C(=O)N[C@@H](CCCNC(=N)N)C(=O)N[C@@H](CC(C)C)C(=O)N[C@@H](CC(C)C)C(=O)N[C@@H](CCC(N)=O)C(N)=O)NC(=O)[C@H](CC(C)C)NC1=O` (H-K[dC]IL[dC]RLLQ-NH2; disulfide 2-5), the Ki at Estrogen receptor [1] was determined as 25 nM.

Turning to `CC[C@H](C)[C@H](NC(=O)[C@H](CCCCN)NC(=O)[C@H](Cc1cnc[nH]1)NC(=O)[C@H](CCCCN)NC(=O)[C@H](CCC(=O)O)NC(C)=O)C(=O)N[C@@H](CC(C)C)C(=O)N[C@@]1(C)CCC/C=C\CCC[C@@](C)(C(=O)N[C@@H](CC(=O)O)C(=O)N[C@@H](CO)C(N)=O)NC(=O)[C@H](CC(C)C)NC(=O)[C@H](CC(C)C)NC(=O)[C@H](CCCNC(=N)N)NC1=O` (Ac-EKHKIL[S5]RLL[S5]DS-NH2; staple (Z) 7-11), the Kdiss in test [5] was determined as 0.155 s⁻¹; in test [6], 0.129 s⁻¹. Moreover, the Kd turned out to be 155 nM on Estrogen receptor beta [3] and 75 nM at Estrogen receptor [4].

Regarding `CC(=O)N[C@@H](Cc1cnc[nH]1)C(=O)N[C@@H](CCCCN)C(=O)N[C@@]1(C)CCC/C=C\CCC[C@@](C)(C(=O)N[C@@H](CC(C)C)C(=O)N[C@@H](CCC(N)=O)C(=O)N[C@@H](CC(=O)O)C(=O)N[C@@H](CO)C(N)=O)NC(=O)[C@H](CCC(N)=O)NC(=O)[C@H](Cc2cnc[nH]2)NC(=O)[C@H](CC(C)C)NC1=O` (Ac-HK[S5]LHQ[S5]LQDS-NH2; staple (Z) 3-7), the Kdiss in test [5] is 0.339 s⁻¹; in test [6], 0.193 s⁻¹. Further, the Kd stood at 632 nM at Estrogen receptor beta [3] and 352 nM on Estrogen receptor [4]. The same compound displayed an IC50 at Estrogen receptor [2] of 760 nM.

In the case of `CC[C@H](C)[C@@H]1NC(=O)[C@@](C)(NC(=O)[C@H](Cc2cnc[nH]2)NC(C)=O)CCC/C=C\CCC[C@@](C)(C(=O)N[C@@H](CC(C)C)C(=O)N[C@@H](CC(C)C)C(=O)N[C@@H](CCC(N)=O)C(=O)N[C@@H](CC(=O)O)C(=O)N[C@@H](CO)C(N)=O)NC(=O)[C@H](Cc2cnc[nH]2)NC(=O)[C@H](CC(C)C)NC1=O` (Ac-H[S5]ILH[S5]LLQDS-NH2; staple (Z) 2-6), the results for the Kdiss in test [5] and in test [6] were 0.509 s⁻¹ and 0.256 s⁻¹, respectively. For the same compound, the results for the Kd at Estrogen receptor beta [3] and on Estrogen receptor [4] were 1990 nM and 674 nM, respectively.

On to `CC[C@H](C)[C@@H]1NC(=O)[C@H](NC(=O)[C@@H](N)CCCNC(=N)N)CSSC[C@H](C(=O)N[C@@H](CCCNC(=N)N)C(=O)N[C@@H](CC(C)(C)C)C(=O)N[C@@H](CC(C)C)C(=O)N[C@@H](CCC(N)=O)C(N)=O)NC(=O)[C@H](CC(C)C)NC1=O`, for which the values for the Ki at Estrogen receptor [1] and on Estrogen receptor beta [7] were 0.07 nM and 1.2 nM, respectively.

For the compound `CC[C@H](C)[C@@H]1NC(=O)[C@H](NC(=O)[C@@H](N)CCCNC(=N)N)CCSC[C@@H](C(=O)N[C@@H](CCCNC(=N)N)C(=O)N[C@@H](CC(C)C)C(=O)N[C@@H](CC(C)C)C(=O)N[C@@H](CCC(N)=O)C(N)=O)NC(=O)[C@H](CC(C)C)NC1=O` (H-R[X2]ILCRLLQ-NH2; thioether 2-5), the Ki was 6.9 nM on Estrogen receptor [1] and 64 nM at Estrogen receptor beta [7].

Turning to `CC(=O)N[C@@H](Cc1cnc[nH]1)C(=O)N[C@@H](CCCCN)C(=O)N[C@@]1(C)C[C@@H](C)C/C=C\CCC[C@@](C)(C(=O)N[C@@H](CC(C)C)C(=O)N[C@@H](CCC(N)=O)C(=O)N[C@@H](CC(=O)O)C(=O)N[C@@H](CO)C(N)=O)NC(=O)[C@H](CCCNC(=N)N)NC(=O)[C@H](Cc2cnc[nH]2)NC(=O)[C@H](CC(C)C)NC1=O` (Ac-HK[X3]LHR[S5]LQDS-NH2; staple (Z) 3-7), the IC50 at Estrogen receptor [2] amounted to 89 nM.

At Estrogen receptor [2], `CC(=O)N[C@@H](Cc1cnc[nH]1)C(=O)N[C@@H](CCCCN)C(=O)N[C@@]1(C)C[C@H](C)C/C=C\CCC[C@@](C)(C(=O)N[C@@H](CC(C)C)C(=O)N[C@@H](CCC(N)=O)C(=O)N[C@@H](CC(=O)O)C(=O)N[C@@H](CO)C(N)=O)NC(=O)[C@H](CCCNC(=N)N)NC(=O)[C@H](Cc2cnc[nH]2)NC(=O)[C@H](CC(C)C)NC1=O` (Ac-HK[αMeNle(4R-Me,6-ylidene)]LHR[S5]LQDS-NH2; staple (Z) 3-7) displayed an IC50 of 96 nM.

In the case of `C=CCCC[C@](C)(NC(=O)[C@H](CCCCN)NC(=O)[C@H](Cc1cnc[nH]1)NC(C)=O)C(=O)N[C@@H](CC(C)C)C(=O)N[C@@H](Cc1cnc[nH]1)C(=O)N[C@@H](CCC(N)=O)C(=O)N[C@@](C)(CCCC=C)C(=O)N[C@@H](CC(C)C)C(=O)N[C@@H](CCC(N)=O)C(=O)N[C@@H](CC(=O)O)C(=O)N[C@@H](CO)C(N)=O` (Ac-HK[S5]LHQ[S5]LQDS-NH2), on Estrogen receptor [2], the IC50 was determined as 1200 nM.

With `CC[C@H](C)[C@H](NC(=O)[C@H](CCCCN)NC(=O)[C@H](Cc1cnc[nH]1)NC(C)=O)C(=O)N[C@@H](CC(C)C)C(=O)N[C@@H](Cc1cnc[nH]1)C(=O)N[C@@H](CCC(N)=O)C(=O)N[C@@H](CC(C)C)C(=O)N[C@@H](CC(C)C)C(=O)N[C@@H](CCC(N)=O)C(=O)N[C@@]1(C)CCC/C=C\CCC[C@@](C)(C(=O)N[C@H](C(N)=O)C(C)C)NC(=O)[C@H](CO)NC(=O)[C@H](CO)NC(=O)[C@H](CO)NC1=O` (Ac-HKILHQLLQ[S5]SSS[S5]V-NH2; staple (Z) 10-14), the figures for the Kd on Estrogen receptor beta [3] and at Estrogen receptor [4] were 2800 nM and 4000 nM, respectively.

Consider `CC[C@H](C)[C@H](NC(=O)[C@H](CCCCN)NC(=O)[C@H](Cc1cnc[nH]1)NC(C)=O)C(=O)N[C@@H](CC(C)C)C(=O)N[C@@H](Cc1cnc[nH]1)C(=O)N[C@@]1(C)CCC/C=C\CCC[C@@](C)(C(=O)N[C@@H](CO)C(N)=O)NC(=O)[C@H](CCC(N)=O)NC(=O)[C@H](CC(C)C)NC(=O)[C@H](CC(C)C)NC1=O` (Ac-HKILH[S5]LLQ[S5]S-NH2; staple (Z) 6-10), for which the Kd on Estrogen receptor beta [3] and on Estrogen receptor [4] was above 15000 nM in each case.
